Experimental data from US6462069B2, “Compounds, pharmaceutical compositions, and methods for inhibiting protein kinases” (Agouron Pharmaceuticals, Inc., priority 2000, dated 2002).

Columns and labels:
CDK2/cyclin A complex = biological target: T1, CDK2/cyclin A complex (Homo sapiens, UniProt P24941); assay: Inhibition of CDK2/Cyclin A retinoblastoma kinase activity; format: biochemical; conditions: for Ki: apparent Ki
T1 construct: made in house; host or cells: CDK2: insect cells (baculovirus); cyclin A: E. coli
Procedure: (§1) Cyclin-dependent kinase activity was measured by quantifying the enzyme-catalyzed, time-dependent incorporation of radioactive phosphate from [^32P]ATP or [^33P]ATP into a protein substrate. Unless noted otherwise, assays were performed in 96-well plates in a total volume of 50 μL, in the presence of 10 mM HEPES (N-[2-hydroxyethyl]piperazine-N′-[2-ethanesulfonic acid]) (pH 7.4). 10 mM MgCI2, 25 μM adenosine triphosphate (ATP), 1 mg/mL ovalbumin, 5 μg/mL leupeptin, 1 mM dithiothreitol, 10 mM beta-glycerophosphate, 0.1 mM sodium vanadate, 1 mM sodium fluoride, 2.5 mM ethylene glycol-bis(β-aminoethyl ethKer)-N,N,N′N′-tetraacetic acid (EGTA), 2% (v/v) dimethylsulfoxide, and 0.03-0.4 μCi [^32/33P]ATP per reaction. Reactions were initiated with enzyme, incubated at 30° C. and terminated after 20 minutes by the addition ofethylenediaminetetraacetic acid (EDTA) to 250 mM. The phosphorylated substrate was then captured on a nitrocellulose or phosphocellulose membrane using a 96-well filtration manifold, and unincorporated radioactivity was removed by repeated washing with 0.85% phosphoric acid. Radioactivity was quantified by exposing the dried membranes to a phosphorimager.
(§2) Apparent Ki values were measured by assaying enzyme activity in the presence of different inhibitor compound concentrations and subtracting the background radioactivity measured in the absence of enzyme. Inhibition data were fit to an equation for competitive inhibition using Kaleidagraph (Synergy Software), or were fit to an equation for competitive tight-binding inhibition using the software KineTic (BioKin, Ltd.).
CDK2 was purified using published methodology (Rosenblatt et al., “Purification and Crystallization of Human Cyclin-dependent Kinase 2,” J. Mol. Biol., vol. 230, pp. 1317-1319 (1993)) from insect cells that had been infected with a baculovirus expression vector. […] Ki values were measured as described above.

CDK4/cyclin D3 complex = biological target: T2, CDK4/cyclin D3 complex (Homo sapiens, UniProt P11802); assay: Inhibition of CDK4/Cyclin D retinoblastoma kinase activity; format: biochemical; conditions: for Ki: apparent Ki
T2 construct: made in house; host or cells: insect cells co-infected with baculovirus expression vectors
T2 sequence (P11802 whole entry): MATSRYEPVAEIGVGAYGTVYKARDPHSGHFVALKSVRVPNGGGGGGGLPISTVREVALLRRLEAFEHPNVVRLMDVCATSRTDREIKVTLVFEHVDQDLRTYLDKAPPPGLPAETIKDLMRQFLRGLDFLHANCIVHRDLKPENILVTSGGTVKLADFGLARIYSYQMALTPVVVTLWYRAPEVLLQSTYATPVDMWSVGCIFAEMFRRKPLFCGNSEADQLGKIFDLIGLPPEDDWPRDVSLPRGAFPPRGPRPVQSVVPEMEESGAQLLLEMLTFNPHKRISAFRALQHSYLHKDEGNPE
T2 sequence (P30281 whole entry partner): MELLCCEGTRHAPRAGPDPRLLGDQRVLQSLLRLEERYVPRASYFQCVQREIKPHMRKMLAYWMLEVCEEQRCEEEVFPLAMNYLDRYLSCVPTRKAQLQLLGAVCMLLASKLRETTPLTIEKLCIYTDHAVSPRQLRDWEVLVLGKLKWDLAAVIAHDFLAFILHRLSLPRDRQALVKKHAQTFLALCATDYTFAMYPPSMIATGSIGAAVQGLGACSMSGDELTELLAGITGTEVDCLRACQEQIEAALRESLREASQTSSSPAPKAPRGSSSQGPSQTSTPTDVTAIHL
Procedure: as §1, §2
A complex of human CDK4 and cyclin D3, or a complex of human CDK4 and genetically truncated (1-264) cyclin D3, was purified using traditional biochemical chromatographic techniques from insect cells that had been co-infected with the corresponding baculovirus expression vectors ((see e.g., Meijer and Kim, “Chemical Inhibitors of Cyclin-Dependent Kinases,” Methods in Enzymol,. vol. 283, pp. 113-128 (1997)). The enzyme complex (5 or 50 nM) was assayed with 0.3-0.5 μg of purified recombinant retinoblastoma protein fragment (Rb) as a substrate. The engineered Rb fragment (residues 386-928 of the native retinoblastoma protein; 62.3 kDa) contains the majority of the phosphorylation sites found in the native 106-kDa protein, as well as a tag of six histidine residues for ease of purification. Phosphorylated Rb substrate was captured by microfiltration on a nitrocellulose membrane and quantified using a phosphorimager as described above. For measurement of tight-binding inhibitors, the enzyme complex concentration was lowered to 5 nM, and the assay duration was extended to 60 minutes, during which the time-dependence of product formation was linear.

[1] = biological target: T3, full-length human CHK1 (FL-CHK1) (Homo sapiens, UniProt O14757); assay: CHK1 assay (coupled spectrophotometric); format: biochemical
T3 construct: C-terminally His-tagged full-length human CHK1 (FL-CHK1); made in house; host or cells: baculovirus/insect cell system
T3 sequence (O14757 1-476): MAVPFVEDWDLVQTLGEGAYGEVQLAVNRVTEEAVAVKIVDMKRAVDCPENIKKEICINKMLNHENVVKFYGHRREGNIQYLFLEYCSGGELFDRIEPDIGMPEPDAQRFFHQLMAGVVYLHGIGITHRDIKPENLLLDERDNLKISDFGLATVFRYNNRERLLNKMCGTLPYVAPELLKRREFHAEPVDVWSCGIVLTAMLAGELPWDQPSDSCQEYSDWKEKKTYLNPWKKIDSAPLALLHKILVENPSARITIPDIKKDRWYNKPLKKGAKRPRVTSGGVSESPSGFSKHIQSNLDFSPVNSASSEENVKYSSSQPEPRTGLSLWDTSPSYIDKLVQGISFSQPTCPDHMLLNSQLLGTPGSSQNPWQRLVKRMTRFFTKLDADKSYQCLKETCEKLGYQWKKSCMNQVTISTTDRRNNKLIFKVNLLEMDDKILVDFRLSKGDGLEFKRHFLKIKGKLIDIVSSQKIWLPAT
Source text: C-terminally His-tagged full-length human CHK1 (FL-CHK1) was expressed using the baculovirus/insect cell system. It contains 6 histidine residues (6×His-tag) at the C-terminus of the 476 amino acid human CHK1. The protein was purified by conventional chromatographic techniques.
The production of ADP from ATP that accompanies phosphoryl transfer to the synthetic substrate peptide Syntide-2 ([…]) was coupled to oxidation of NADH using phosphoenolpyruvate (PEP) through the actions of pyruvate kinase (PK) and lactic dehydrogenase (LDH). The oxidation of NADH was monitored by following the decrease of absorbance at 340 nm (∈340=6.22 cm^−1 mM^−1) using a HP8452 spectrophotometer. Typical reaction solutions contained: […] PEP; 0.15 mM NADH; 28 units of LDH/ml; 16 units of PK/ml; 3 mM DTT; 0.125 mM Syntide-2: 0.15 mM ATP; 25 mM MgCI2 in 50 mM TRIS, pH 7.5; and 400 mM NaCl. Assays were initiated with 10 nM of FL-CHK1. Ki values were determined by measuring initial enzyme activity in the presence of varying concentrations of test compounds. The data were analyzed using Enzyme Kinetic and Kaleidagraph software.

HCT 116 cell line = assay: Inhibition of cell growth, MTT tetrazolium salt assay; format: cell-based; conditions: Homo sapiens, HCT116 cells; for IC50: 50% inhibition of growth, read-out: HCT116 IC 50
Procedure: Inhibition of cell growth was measured using the tetrazolium salt assay, which is based on the ability of viable cells to reduce 3-(4,5-dimethylthiazol-2-yl)-2,5-[2H]-diphenyltetrazolium bromide (MTT) to formazan (Mossman, Journal of Immunological Methods, vol.65, pp. 55-58(1983)). The water-insoluble purple formazan product was then detected spectrophotometrically. The HCT 116 cell line was grown in 96-well plates. Cells were plated in the appropriate medium at a volume of 135 μl/well in McCoy's 5A Medium. Plates were incubated for four hours before addition of inhibitor compounds. Different concentrations of inhibitor compounds were added in 0.5% (v/v) dimethylsulfoxide (15 μL/well), and cells were incubated at 37° C. (5% CO2) for four to six days (depending on cell type). At the end of the incubation, MTT was added to a final concentration of 0.2 mg/mL, and cells were incubated for 4 hours more at 37° C. After centrifugation of the plates and removal of medium, the absorbance of the formazan (solubilized in dimethylsulfoxide) was measured at 540 nm. The concentration of inhibitor compound causing 50% inhibition of growth was determined from the linear portion of a semi-log plot of inhibitor concentration versus percentage inhibition. All results were compared to control cells treated only with 0.5% (v/v) dimethylsulfoxide.

Row | Ki (CDK2/cyclin A complex) [µM] | Ki (CDK4/cyclin D3 complex) [µM] | Compound | further results
1 | 3.2 | 2.1 | NS(=O)(=O)c1ccc(Nc2cc(-c3csc4c(-c5ccc(O)cc5)cccc34)[nH]n2)cc1 [Compound T, 4-{5-[7-(4-Hydroxy-phenyl)-benzo[b]thiophen-3-yl]-1H-pyrazol-3-ylamino]-benzenesulfonamide] | –
2 | 10 | 10 | C1=C(c2cscc2-c2cc(Nc3ccccc3)n[nH]2)CCCC1 [Compound G, [5-(4-Cyclohex-1-enyl-thiophen-3-yl)-1H-pyrazol-3-yl]-phenyl-amine] | –
3 | 0.11 | 2.1 | NS(=O)(=O)c1ccc(Nc2cc(-c3csc4c(Br)cccc34)[nH]n2)cc1 [Compound P, 4-[5-(7-Bromo-benzo[b]thiophen-3-yl)-1H-pyrazol-3-ylamino]-benzenesulfonamide] | –
4 | 0.27 | 12 | COc1ccc2c(-c3cc(Nc4ccc(S(N)(=O)=O)cc4)n[nH]3)csc2c1 [Compound V, 4-[5-(6-Methoxy-benzo[b]Thiophen-3-yl)-1H-pyrazol-3-ylamino]-Benzenesulfonamide] | –
5 | 61 | 59 | c1ccc(Nc2cc(-c3cccnc3)[nH]n2)cc1 [Compound C] | Ki [1]: 1.5 µM
6 | – | – | C(=C\c1cscc1-c1cc(Nc2ccccc2)n[nH]1)/c1ccccc1 [Compound F, Phenyl-[5-(4-trans-styryl-thiophen-3-yl]-1H-pyrazol-3-yl]-amine] | inhibition at 10 µM (CDK2/cyclin A complex; at 10 μM, read-out: Percent Inhibition CDK2/A): 37%; inhibition at 10 µM (CDK4/cyclin D3 complex; at 10 μM, read-out: Percent Inhibition CDK4/D): 25%
7 | 6.3 | 4.7 | COc1ccc(Nc2cc(-c3csc4ccccc34)[nH]n2)cc1 [Compound K, (5-Benzo[b]thiophen-3-yl-1H-pyrazol-3-yl)-4-(methoxy-phenyl)-amine] | –
8 | 2.7 | 3.3 | NS(=O)(=O)c1ccc(Nc2cc(-c3csc4c(-c5cccc(O)c5)cccc34)[nH]n2)cc1 [Compound R, 4-{5-[7-(3-Hydroxy-phenyl)-benzo[b]thiophen-3-yl]-1H pyrazol-3-ylamino]-benzenesulfonamide] | inhibition at 10 µM ([1]; at 10 μM, read-out: Percent Inhibition CHK1): 8%
9 | 2 | 5.3 | Oc1ccc(Nc2cc(-c3csc4ccccc34)[nH]n2)cc1 [Compound L, 4-(Benzo[b]thiophen-3-yl-1H-pyrazol-3-ylamino)-phenol] | –
10 | 0.08 | 2.3 | NS(=O)(=O)c1ccc(Nc2cc(-c3csc4ccc(Br)cc34)[nH]n2)cc1 [Compound U, {5-[3-(5-Bromo)-benzo[b]Thiophenyl]-1-H-pyrazol-3-yl}-phenylamine-4-Sulfonamide] | –
11 | 22 | 9.7 | Brc1cscc1-c1cc(Nc2ccccc2)n[nH]1 [Compound E, [5-(4-Bromo-thiophen-3-yl)-1H-pyrazol-3-yl]1-phenyl-amine] | –
12 | 0.016 | 0.9 | NS(=O)(=O)c1ccc(Nc2cc(-c3csc4cc(O)ccc34)[nH]n2)cc1 [Compound W, 4-[5-(6-Hydroxy-benzo[b]Thiophen-3-yl)-1H-pyrazol-3-ylamino]-Benzenesulfonamide] | IC50 (HCT 116 cell line): 20 µM
13 | 15 | 12 | c1ccc(Nc2cc(-c3c[nH]c4ccccc34)[nH]n2)cc1 [Compound J, [5-(1H-Indol-3-yl)-1H-pyrazol-3-yl]-phenyl-amine] | Ki [1]: 18 µM
14 | – | 4.7 | c1ccc(Nc2cc(-c3cscc3Sc3ccccc3)[nH]n2)cc1 [Compound I, Phenyl-[5-(4-phenylsulfanyl-thiophene-3-yl)-1H-pyrazol-3-yl]-amine] | –
15 | 0.39 | 12 | NS(=O)(=O)c1ccc(Nc2cc(-c3c[nH]c4ccccc34)[nH]n2)cc1 [Compound X, 4-[5-(1H-Indol-3-yl)-1H-pyrazol-3-ylamino]-Benzenesulfonamide] | Ki [1]: 1.8 µM
16 | 25 | 7.4 | c1ccc(Nc2n[nH]c3c2-c2ccccc2C3)cc1 [Compound D, (1,8-Dihydro-indeno[2,1-c]pyrazol-3-yl)-phenyl-amine] | –
17 | 0.062 | 1.6 | NS(=O)(=O)c1ccc(Nc2cc(-c3csc4ccccc34)[nH]n2)cc1 [Compound O] | IC50 (HCT 116 cell line): 9.5 µM; IC90 (HCT 116 cell line; read-out: HCT116 IC 90): 24 µM
18 | 3 | 3 | c1ccc(Nc2cc(-c3cscc3C3CCCCC3)[nH]n2)cc1 [Compound H, [5-(4-Cyclohexyl-thiophen-3-yl)-1H-pyrazol-3-yl]-phenyl-amine] | –
19 | 21 | 4.1 | COc1cccc(Nc2cc(-c3csc4ccccc34)[nH]n2)c1 [Compound M] | –
20 | – | – | COc1cccc(-c2cccc3c(-c4cc(Nc5ccc(S(N)(=O)=O)cc5)n[nH]4)csc23)c1 [Compound Q, 4-{5-[7-(3-Methoxy-phenyl)-benzo[b]thiophen-3-yl]-1H-pyrazol-3-ylamino]-benzenesulfonamide] | inhibition at 5 µM (CDK2/cyclin A complex; at 5 μM, read-out: Percent Inhibition CDK2/A): 21%; inhibition at 5 µM (CDK4/cyclin D3 complex; at 5 μM, read-out: Percent Inhibition CDK4/D): 13%
21 | 2.4 | 4.9 | Oc1cccc(Nc2cc(-c3csc4ccccc34)[nH]n2)c1 [Compound N, 3-(Benzo[b]thiophen-3-yl-1H-pyrazol-3-ylamino)-phenol] | –
